The results in this text go back to ChEMBL document CHEMBL5465560, “Selectivity Literature for EUbOPEN Chemogenomic Library” (2024).

Test [1] has as its target T1, Mitogen-activated protein kinase 13 (Homo sapiens) (UniProt O15264).
T1 sequence (whole entry): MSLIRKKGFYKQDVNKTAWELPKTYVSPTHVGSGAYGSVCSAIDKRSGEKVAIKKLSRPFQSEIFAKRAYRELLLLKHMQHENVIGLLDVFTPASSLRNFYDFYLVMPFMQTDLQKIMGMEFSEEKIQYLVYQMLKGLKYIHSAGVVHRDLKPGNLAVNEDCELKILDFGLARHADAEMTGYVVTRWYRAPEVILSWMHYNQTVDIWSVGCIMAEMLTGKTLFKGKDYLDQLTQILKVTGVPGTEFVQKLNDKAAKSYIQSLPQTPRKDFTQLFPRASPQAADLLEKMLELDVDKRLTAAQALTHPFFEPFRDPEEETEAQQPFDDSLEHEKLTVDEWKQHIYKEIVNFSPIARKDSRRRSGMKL
Nature of the test: Selectivity interaction (KinomeScan (DiscoverX)) EUB0001079a MAPK13. To be noted: at 1 µM.

Test [2] addresses Sodium-dependent serotonin transporter (Homo sapiens, UniProt P31645). The experiment in a line: Selectivity interaction (Panel of non-epigenetic targets (kinases, GPCRs, ion channels, and transporters, Eurofins) ) EUB0000271b SLC6A4. To be noted: at 1 µM.
Test [3] addresses Citron Rho-interacting kinase (Homo sapiens) (UniProt O14578). Nature of the test: Selectivity interaction (KinomeScan (DiscoverX)) EUB0000045b CIT.
For test [4], the target named is T2, Mitogen-activated protein kinase kinase kinase 6 (Homo sapiens) (UniProt O95382).
T2 sequence (whole entry): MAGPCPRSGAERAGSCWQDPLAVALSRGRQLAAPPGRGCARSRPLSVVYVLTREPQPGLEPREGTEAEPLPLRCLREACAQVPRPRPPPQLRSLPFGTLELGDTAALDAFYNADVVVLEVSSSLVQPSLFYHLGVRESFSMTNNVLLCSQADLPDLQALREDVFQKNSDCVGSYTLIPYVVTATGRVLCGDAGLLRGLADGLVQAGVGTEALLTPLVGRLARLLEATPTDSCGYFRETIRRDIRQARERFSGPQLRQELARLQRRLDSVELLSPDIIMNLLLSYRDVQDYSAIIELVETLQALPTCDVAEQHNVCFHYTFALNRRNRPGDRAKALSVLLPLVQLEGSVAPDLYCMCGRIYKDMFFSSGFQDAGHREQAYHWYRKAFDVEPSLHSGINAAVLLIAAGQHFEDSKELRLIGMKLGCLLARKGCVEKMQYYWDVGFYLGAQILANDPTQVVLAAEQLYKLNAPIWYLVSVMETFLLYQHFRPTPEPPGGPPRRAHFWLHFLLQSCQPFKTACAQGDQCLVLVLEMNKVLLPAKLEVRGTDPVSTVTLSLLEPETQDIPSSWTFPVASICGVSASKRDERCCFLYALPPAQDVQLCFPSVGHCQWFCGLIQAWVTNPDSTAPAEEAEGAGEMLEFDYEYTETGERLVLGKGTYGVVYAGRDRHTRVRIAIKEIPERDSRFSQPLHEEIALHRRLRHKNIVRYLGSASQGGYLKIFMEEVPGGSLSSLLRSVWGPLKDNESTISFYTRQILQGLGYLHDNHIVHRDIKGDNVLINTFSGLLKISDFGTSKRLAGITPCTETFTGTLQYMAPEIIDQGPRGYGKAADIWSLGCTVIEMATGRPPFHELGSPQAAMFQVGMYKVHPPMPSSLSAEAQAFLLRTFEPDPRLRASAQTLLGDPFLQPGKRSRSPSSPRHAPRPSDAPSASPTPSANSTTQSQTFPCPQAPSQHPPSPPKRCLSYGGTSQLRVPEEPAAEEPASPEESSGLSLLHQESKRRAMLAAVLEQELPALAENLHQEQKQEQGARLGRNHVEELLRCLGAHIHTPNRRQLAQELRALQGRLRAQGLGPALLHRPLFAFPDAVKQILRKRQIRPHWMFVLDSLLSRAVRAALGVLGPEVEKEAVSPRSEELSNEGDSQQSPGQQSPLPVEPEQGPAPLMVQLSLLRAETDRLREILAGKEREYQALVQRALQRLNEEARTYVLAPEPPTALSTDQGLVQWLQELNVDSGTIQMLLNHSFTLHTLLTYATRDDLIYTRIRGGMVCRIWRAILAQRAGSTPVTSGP
The experiment in a line: Selectivity interaction (ActivX KiNativ screen (kinase selectivity in THP-1 cell lysates)) EUB0000639a MAP3K6. The format is subcellular. To be noted: lysate, at 1 µM.

The target of test [5] is T3, Calcium/calmodulin-dependent protein kinase type IV (Homo sapiens) (UniProt Q16566).
T3 sequence (whole entry): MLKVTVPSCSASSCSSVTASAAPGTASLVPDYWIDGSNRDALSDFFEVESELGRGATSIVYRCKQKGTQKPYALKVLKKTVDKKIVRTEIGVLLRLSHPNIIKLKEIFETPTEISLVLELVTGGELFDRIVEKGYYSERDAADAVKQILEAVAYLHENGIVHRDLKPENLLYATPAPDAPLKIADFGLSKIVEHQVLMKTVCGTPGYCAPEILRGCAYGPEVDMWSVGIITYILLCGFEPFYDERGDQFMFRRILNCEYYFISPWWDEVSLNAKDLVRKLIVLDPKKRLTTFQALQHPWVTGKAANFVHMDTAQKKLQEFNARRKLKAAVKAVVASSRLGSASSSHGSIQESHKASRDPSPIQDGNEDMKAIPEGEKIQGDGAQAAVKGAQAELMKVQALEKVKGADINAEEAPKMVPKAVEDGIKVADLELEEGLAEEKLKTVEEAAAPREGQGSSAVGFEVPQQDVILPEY
The experiment in a line: Selectivity interaction (Kinase panel (KiNativ target engagement assay in Jurkat cells)) EUB0001635a CAMK4. The format is cell-based. To be noted: Selectivity number of off-targets 0.0, Selectivity number of targets 233.0, Source Knowledge https://www.sciencedirect.com/science/article/pii/S2451945619300674?via%3Dihub, at 1 µM.

Sequence of Citron Rho-interacting kinase (Homo sapiens) (O14578 whole entry): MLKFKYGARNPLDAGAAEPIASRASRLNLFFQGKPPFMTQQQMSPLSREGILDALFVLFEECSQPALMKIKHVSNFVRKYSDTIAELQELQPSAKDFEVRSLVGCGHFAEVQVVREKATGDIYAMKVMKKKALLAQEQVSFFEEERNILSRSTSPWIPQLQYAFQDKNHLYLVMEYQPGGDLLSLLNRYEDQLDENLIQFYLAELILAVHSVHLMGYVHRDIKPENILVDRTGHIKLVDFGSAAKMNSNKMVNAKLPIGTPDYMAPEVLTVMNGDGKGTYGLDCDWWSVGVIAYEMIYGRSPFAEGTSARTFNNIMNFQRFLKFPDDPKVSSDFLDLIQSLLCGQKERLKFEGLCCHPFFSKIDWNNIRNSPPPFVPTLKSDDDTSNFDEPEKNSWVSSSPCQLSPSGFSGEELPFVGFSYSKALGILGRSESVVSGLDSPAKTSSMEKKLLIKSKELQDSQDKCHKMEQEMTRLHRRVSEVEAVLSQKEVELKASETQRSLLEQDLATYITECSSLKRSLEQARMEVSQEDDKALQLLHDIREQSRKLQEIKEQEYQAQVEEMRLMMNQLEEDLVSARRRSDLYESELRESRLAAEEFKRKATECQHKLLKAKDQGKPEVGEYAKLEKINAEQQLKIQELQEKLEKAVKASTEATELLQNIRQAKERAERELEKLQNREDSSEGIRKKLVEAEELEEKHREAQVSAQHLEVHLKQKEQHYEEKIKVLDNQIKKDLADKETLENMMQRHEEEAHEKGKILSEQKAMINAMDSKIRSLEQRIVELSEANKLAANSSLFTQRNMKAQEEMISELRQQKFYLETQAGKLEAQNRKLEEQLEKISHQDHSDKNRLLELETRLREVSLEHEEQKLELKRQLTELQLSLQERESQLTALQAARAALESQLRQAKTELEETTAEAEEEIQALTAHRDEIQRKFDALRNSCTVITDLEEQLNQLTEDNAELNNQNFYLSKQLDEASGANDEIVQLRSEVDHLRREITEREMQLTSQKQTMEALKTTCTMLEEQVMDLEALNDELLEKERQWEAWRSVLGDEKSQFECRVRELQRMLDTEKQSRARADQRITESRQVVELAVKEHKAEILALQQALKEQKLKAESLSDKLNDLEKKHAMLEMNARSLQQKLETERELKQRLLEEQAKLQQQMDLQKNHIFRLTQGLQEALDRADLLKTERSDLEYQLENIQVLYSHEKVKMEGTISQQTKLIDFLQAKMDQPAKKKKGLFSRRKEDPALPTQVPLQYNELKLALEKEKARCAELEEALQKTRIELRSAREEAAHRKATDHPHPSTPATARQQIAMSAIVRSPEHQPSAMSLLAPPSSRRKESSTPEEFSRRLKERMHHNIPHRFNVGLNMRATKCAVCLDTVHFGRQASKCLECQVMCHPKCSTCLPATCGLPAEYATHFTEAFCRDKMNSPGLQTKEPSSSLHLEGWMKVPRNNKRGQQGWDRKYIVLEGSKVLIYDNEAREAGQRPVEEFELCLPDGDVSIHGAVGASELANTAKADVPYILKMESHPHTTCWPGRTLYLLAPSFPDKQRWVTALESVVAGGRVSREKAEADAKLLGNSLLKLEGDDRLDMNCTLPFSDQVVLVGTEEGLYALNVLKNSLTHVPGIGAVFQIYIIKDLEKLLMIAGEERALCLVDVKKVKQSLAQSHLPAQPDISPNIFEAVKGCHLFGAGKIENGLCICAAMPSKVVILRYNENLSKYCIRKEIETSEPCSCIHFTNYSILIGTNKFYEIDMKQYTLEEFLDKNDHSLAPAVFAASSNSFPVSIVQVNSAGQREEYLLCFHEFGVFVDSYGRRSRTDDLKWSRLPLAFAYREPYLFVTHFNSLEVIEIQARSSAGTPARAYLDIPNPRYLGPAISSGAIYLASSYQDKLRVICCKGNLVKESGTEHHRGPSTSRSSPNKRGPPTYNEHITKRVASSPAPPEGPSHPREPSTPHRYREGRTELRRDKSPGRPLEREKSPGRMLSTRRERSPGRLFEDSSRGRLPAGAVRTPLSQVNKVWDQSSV
Sequence of Sodium-dependent serotonin transporter (P31645 whole entry, looked up): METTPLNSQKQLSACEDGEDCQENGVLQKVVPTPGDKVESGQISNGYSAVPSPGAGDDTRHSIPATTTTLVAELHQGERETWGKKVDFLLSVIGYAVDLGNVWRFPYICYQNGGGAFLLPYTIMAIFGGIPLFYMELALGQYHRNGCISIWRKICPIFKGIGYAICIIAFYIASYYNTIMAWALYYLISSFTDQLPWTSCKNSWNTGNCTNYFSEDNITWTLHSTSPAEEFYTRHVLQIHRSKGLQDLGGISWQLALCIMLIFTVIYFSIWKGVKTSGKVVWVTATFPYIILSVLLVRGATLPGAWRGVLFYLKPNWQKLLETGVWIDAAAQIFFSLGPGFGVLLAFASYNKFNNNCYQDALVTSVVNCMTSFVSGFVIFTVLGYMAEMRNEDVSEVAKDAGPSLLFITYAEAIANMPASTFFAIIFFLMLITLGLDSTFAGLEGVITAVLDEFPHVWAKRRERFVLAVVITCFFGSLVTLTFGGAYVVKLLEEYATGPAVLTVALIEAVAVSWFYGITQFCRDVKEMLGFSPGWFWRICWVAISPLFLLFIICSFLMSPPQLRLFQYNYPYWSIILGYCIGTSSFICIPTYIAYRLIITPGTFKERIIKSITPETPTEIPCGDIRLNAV

Consider `Nc1cnc(N2CCc3cc(S(=O)(=O)Nc4c(F)cc(Cl)cc4F)cc(N4CCCC4=O)c32)nc1` [TP-020n], for which the % of control in test [1] was 100%. Take `Cc1cc(C)cc([C@@H]2c3cc(C)ccc3NC(=O)CN2C(=O)c2ccc(Br)s2)c1`: the % of inhibition in test [2] was -17%. Take `C=CC(=O)Nc1cc(-n2c(=O)ccc3cnc4ccc(-c5ccc(NS(C)(=O)=O)cc5)cc4c32)ccc1C`: the % of control came to 83% in test [3] (at 1 µM) and 53% in test [3] (at 10 µM). With `CC[C@@H]1[C@H](F)C(=O)N[C@@H]1COc1nccc2cc(C(N)=O)c(OC)cc12` [ZIMLOVISERTIB], in test [4], the % of inhibition is -16.4%. With `C=CC(=O)Nc1ccc(C(=O)Nc2[nH]nc3c2CN(C(=O)N[C@H](CN(C)C)c2ccccc2)C3(C)C)cc1`, the % of engagement in test [5] worked out at 4.5%.
